Results on four molecules are retold here after patent US20240132522A1, “HETEROCYCLIC COMPOUNDS AND METHODS OF USE THEREOF” (1cBio, Inc., priority 2022, published 2024).

Assay [1] concerns DLD-1 wild-type colorectal adenocarcinoma cells. Briefly: Cell viability assay (Cell Titer-Glo), DLD-1 wild-type. The format is cell-based. To be noted: Homo sapiens, DLD-1, 168 h, 7 days, 50 cells/well. An excerpt: (§1) In some embodiments, the biological assay measures the effects that compounds of the present disclosure may have on the viability of cells, e.g., the viability of cancer cells. In some embodiments, DLD-1 wild-type and DLD-1 BRCA2(−/−) colorectal adenocarcinoma cells, an isogenic pair of cell lines differing in the presence and absence, respectively, of both BRCA2 alleles, are used to measure the effect of the disclosed compounds on the viability of cancer cells.
(§2) In some embodiments, the cells are harvested during the logarithmic growth period, counted, and seeded at a specified count in the wells of a 96- or 384-well cell culture plate. In some embodiments, after seeding, the cells are incubated, e.g., at 37° C., 5% CO2 overnight. In some embodiments, the cells are treated with compounds, e.g., with serially diluted test compounds at 8-11 concentrations within a desired concentration range, e.g., from 1 nM-10 μM, for the generation of dose-response curves. In some embodiments, the plate is further incubated, e.g., for another 3-7 days in a humidified incubator at 37° C. and 5% CO2. In some embodiments, cell viability is assessed by luminescence measurement after addition of Cell Titer-Glo reagent (Promega, Madison, Wis.) according to the manufacturer's instructions. In some embodiments, cell viability IC50 values are calculated using XLFit, equation 201: y=A+((B−A)/(1+((x/C)^D))), where A=bottom, B=top, C=IC50, and D=slope. In some embodiments, the effects of the test compounds on the viability of other cell lines such as MDA-MB-436, MDA-MB-231, SUM149PT, HCC1395, and UWB1.289 are determined in an analogous method.
(§3) Compounds of the present disclosure were tested for their effects on the viability of cancer cells. DLD-1 wild-type and DLD-1 BRCA2(−/−) colorectal adenocarcinoma cells, an isogenic pair of cell lines differing in the presence and absence, respectively, of both BRCA2 alleles, were used. The cells were harvested during the logarithmic growth period, counted, and seeded at 50 cells/well for DLD-1 wild-type and 200 cells/well for DLD-1 BRCA2(−/−) in a 384-well cell culture plate. After seeding, cells were incubated at 37° C., 5% CO2 overnight. Cells were treated with serially diluted test compounds at 10 concentrations from 1.5 nM-30 μM) for generation of dose response curves. The plate was further incubated for another 7 days in a humidified incubator at 37° C. and 5% CO2. Cell viability was assessed by luminescence measurement after addition of Cell Titer-Glo reagent (Promega, Madison, Wis.) according to the manufacturer's instructions. Cell viability IC50 values were calculated using XLFit, equation 201: y=A+((B−A)/(1+((x/C)^D))), where A=bottom, B=top, C=IC50, and D=slope. IC50 values are shown in Table B and are presented in ranges, in which “+++”<300 nM, 300 nM≤“++”<3000 nM, and “+”≥3000 nM. Effects of the test compounds on the viability of other cell lines such as MDA-MB-436, MDA-MB-231, SUM149PT, HCC1395, and UWB1.289 are determined in an analogous method.
For orientation: ATP-based viability assays read luminescence as a measure of living cells.

Assay [2] deals with DLD-1 BRCA2(−/−) colorectal adenocarcinoma cells. Briefly: Cell viability assay (Cell Titer-Glo), DLD-1 BRCA2(−/−). Format: cell-based. The note with it: Homo sapiens, DLD-1, 168 h, 7 days, 200 cells/well.
From the text: as §1, §2, §3

One may read the IC50 as the midpoint of a concentration-inhibition curve.

Where a name gives a salt, the structure may show the parent alone. Some results are limits rather than exact numbers.

On to `CCc1cc2ncc(CN3CC4(C3)CN(c3ccc(C(=O)NC)nc3)C4)cc2[nH]c1=O` [Compound No. 9, 5-(6-((7-ethyl-6-oxo-5,6-dihydro-1,5-naphthyridin-3-yl)methyl)-2,6-diazaspiro[3.3]heptan-2-yl)-N-methylpicolinamide formate], for which the IC50 in assay [1] and in assay [2] was ≥ 3000 nM each time.
`CCc1cc2ncc(CN3CCCN(c4ccc(C(=O)NC)nc4)CC3)cc2[nH]c1=O` [Compound No. 6, 5-(4-((7-ethyl-6-oxo-5H-1,5-naphthyridin-3-yl)methyl)-1,4-diazepan-1-yl)-N-methylpyridine-2-carboxamide]: the IC50 in assay [1] and in assay [2] was ≥ 3000 nM in each case.
With `CCc1cc2ncc(CNC3CC(Nc4ccc(C(=O)NC)nc4)C3)cc2[nH]c1=O` (centres unmarked) [Compound No. 29, 5-((3-(((7-ethyl-6-oxo-5,6-dihydro-1,5-naphthyridin-3-yl)methyl)amino)cyclobutyl)amino)-N-methylpicolinamide], the 50% inhibitory concentration (IC50) in assay [1] and in assay [2] was ≥ 3000 nM in each case.
Turning to `CCc1cc2ncc(CN3CC4CN(c5ccc(C(=O)NC)nc5)CC4C3)cc2[nH]c1=O` (centres unmarked) [Compound No. 7, 5-(5-((7-ethyl-6-oxo-5,6-dihydro-1,5-naphthyridin-3-yl)methyl)hexahydropyrrolo[3,4-c]pyrrol-2(1H)-yl)-N-methylpicolinamide], the figures for the half-inhibitory concentration (IC50) in assay [1] and in assay [2] were ≥ 3000 nM and 300 to 3000 nM, respectively.
